From EP4670717A1, “PYRROLIDINE-FUSED MYRTANOL DERIVATIVES AS INHIBITORS AND/OR DEGRADERS OF IDO1 UND USE THEREOF” (Max-Planck-Gesellschaft zur Förderung der Wissenschaften …, priority 2024, dated 2025)
Where two headings read alike, the source gives them in different places.

How the values were obtained:
[1] = target: T1, recombinant human IDO1 (rhIDO1) (Homo sapiens, UniProt P14902); assay: IDO1 enzymatic assay with recombinant protein, Kyn detection with p-DMAB; type: biochemical; conditions: pre-incubated with compounds at 37°C for 40 min; for inhibition at 59 µM: in vitro inhibition at 59 uM; for IC50: determined if inhibition at 59 µM was higher than 50%, read-out: rhIDO1 enzymatic activity IC50 ± SD
T1 construct: Full-length rhIDO protein (1 µM) in 50 mM potassium phosphate buffer; GST (cleaved yes); made in house; host or cells: E. coli
T1 sequence (P14902 whole entry): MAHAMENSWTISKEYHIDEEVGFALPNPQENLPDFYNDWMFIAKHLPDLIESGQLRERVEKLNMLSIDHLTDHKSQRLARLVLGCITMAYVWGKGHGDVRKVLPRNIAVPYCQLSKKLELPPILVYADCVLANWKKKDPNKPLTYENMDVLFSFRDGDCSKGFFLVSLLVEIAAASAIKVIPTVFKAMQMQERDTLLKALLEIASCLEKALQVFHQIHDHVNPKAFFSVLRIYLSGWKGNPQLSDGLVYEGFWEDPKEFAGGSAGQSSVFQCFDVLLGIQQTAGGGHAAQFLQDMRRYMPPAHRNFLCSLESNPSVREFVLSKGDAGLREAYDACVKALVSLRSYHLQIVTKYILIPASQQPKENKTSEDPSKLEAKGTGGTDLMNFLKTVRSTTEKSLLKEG
Source text: Reduction of the kynurenine level in the cell-based model employed for initial SAR exploration can be due to inhibition of enzymatic activity, degradation of IDO1, or both (Table B-2). In order to differentiate between these different activities, we explored the modes of action of selected compounds in an in vitro assay employing recombinant human IDO1 (rhIDO1) monitoring enzymatic activity only, and we characterized the degradation efficiency by means of Western blotting, determining maximum degradation levels at 0.1µM (Dmax) and half maximum degradation concentration (DC50) (Table B-2). Table B-2 in vitro inhibition and degradation of IDO1 by selected compounds. […] Data are mean values ± SD (n = 4, except for compounds 1, 11, and 19 (n=2)). […] Data are mean values of n biological replicates. Dmax corresponds to maximum levels of IDO1 degradation at 0.1 µM.
Full-length rhIDO protein (1 µM) in 50 mM potassium phosphate buffer (50 mM KH2PO4 and 50 mM K2HPO4, pH 6.5) was incubated with the respective compounds for 40 min at 37 °C prior to the addition of 10 mM ascorbic acid, 10 µM methylene blue, 2 mM Trp and 100 µg/mL catalase (Sigma-Aldrich, C100). Samples were incubated for 60 min followed by the addition of trichloroacetic acid to a final concentration of 7 % and further incubation for 30 min at 37 °C. Kyn levels were detected by the addition of an equal volume of 2 % (w/v) p-DMAB in acetic acid and absorbance was measured at 492 nm and 650 nm as a background control. Values are presented relative to the DMSO control. Dose-response curves and IC50 values were generated and fitted with GraphPad Prism 6.0 (GraphPad software, USA) using four-parameter variable slope non-linear regression curve fit.

[2] = target: T2, IDO1 (Homo sapiens, UniProt P14902); assay: IDO1 degradation in BxPC3 cells, IDO1 protein levels by immunoblotting; type: cell-based; conditions: for Dmax at 0.1 µM: BXPC-3, BxPC3 cells; for Dmax at 0.1 µM / Dmax [%] (n): 50 ng/ml IFN-γ 24 h, washout, compound (100 nM) 24 h, maximum IDO1 degradation at 0.1 µM;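 on all read-outs here: IDO1 bands on Western blots detected with fluorescent dye-labelled secondary antibodies and quantified by band intensity, values are means of n biological replicates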
T2 construct: BxPC3 cells were seeded in phenol red-free RPMI 1640 medium; endogenous in cells; host or cells: BxPC3 cells stimulated with IFN-γ (50 ng/mL)
T2 sequence (P14902 whole entry): as above
Method: To analyze IDO1 levels, IFN-γ-stimulated BxPC3 cells (50 ng/mL IFN-γ), U2OS cells (5 ng/mL IFN-γ), HEK^rhIDO1 (HEK293T cells electroporated with rhIDO1), SKOV3 and BT549 cells were treated with compounds for the indicated times (6 h to 24 h) followed by cell lysis (150 mM sodium chloride in 50 mM Tris (pH 8.0) and 1% NP-40 Alternative, protease and phosphatase inhibitors). Protein concentrations were determined (DC protein assay, Bio-Rad) followed by addition of 1 × SDS loading buffer and protein separation by a 10% SDS-PAGE. Separated protein samples were transferred to a polyvinylidene difluoride (PVDF) membrane using a wet-tank blotting system (Bio-Rad). IDO1 as well as vinculin as a loading were detected using the primary antibodies anti-IDO1 (ab211017, abcam or 14-9750-80, Thermo Fisher), anti-vinculin (V9131, Thermo Fisher) and anti-β-actin (ab8227, abcam) in 5 % milk in PBS-buffered saline with 0.05 % (v/v) Tween-20 (PBS-T). Primary antibodies were incubated at 4°C overnight and detected with IRDye-conjugated secondary antibodies (LI-COR Biosciences). IDO1 protein level in BT549 and SKOV3 cells was detected with HRP conjugated secondary antibody and SuperSignal™ West Dura Extended Duration Substrat (Thermo Fisher Scientific). Washing steps were performed with PBS-T. Protein bands were visualized by ChemiDoc™ MP (Bio-Rad) using a fluorescent readout. Band intensities were quantified using Image Lab software.
In order to differentiate between these different activities, we explored the modes of action of selected compounds in an in vitro assay employing recombinant human IDO1 (rhIDO1) monitoring enzymatic activity only, and we characterized the degradation efficiency by means of Western blotting, determining maximum degradation levels at 0.1µM (Dmax) and half maximum degradation concentration (DC50) (Table B-2). […] Data are mean values of n biological replicates. Dmax corresponds to maximum levels of IDO1 degradation at 0.1 µM.

[3] = target: T2, IDO1; assay: Kyn assay in BxPC-3 cells (Kyn levels after IFN-γ and Trp); type: cell-based; conditions: for activity in the cell-based kynurenine assay: result in words;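 on all read-outs here: kyn levels expressed relative to DMSO-treated control cells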
Method: BxPC3 cells were seeded in phenol red-free RPMI 1640 medium in 1536-well or 384-well plates (Greiner #782086, Corning #3770) 24 h prior to the addition of compounds, IFN-γ (50 ng/mL, PeproTech) and L-Trp (380 µM, Sigmal-Aldrich). After 48 h of incubation, first cell viability was accessed by the addition of Hoechst-33342. Afterwards, trichloroacetic acid (TCA, Sigma-Aldrich) was added to a final concentration of 7 % and incubated for 10 min prior to a centrifugation step of 10 min at 1620 × g. Kyn levels were determined by means of the Kyn sensor^7 at a final concentration of 17.5 µM in sensor buffer (50 mM H3PO4 and 120 mM NaCl (pH=1)). Fluorescence intensity (excitation: 535 nm, emission: 595 nm) was measured using a Spectramax Paradigm reader (Molecular Devices). Data were normalized to the values for cells that were treated with DMSO.
For the manual assay, BxPC3 or SKOV3 cells were seeded in clear 96-well or 384-well plates, respectively, 24 h prior to compound treatment and IFN-γ (50 or 5 ng/mL, respectively) and L-Trp (380 µM) addition as described before.^7 48 h after treatment, TCA was added and Kyn levels were detected by means of 2 % w/v of p-DMAB (Ehrlich reagent) in acetic acid as described by Braun et al^29. The absorbance of the Ehrlich reagent was detected at 492 nm and at 650 nm as background control was measured on Spark® multimode microplate plate reader (Tecan, Austria). Kyn levels were determined by subtracting the absorbance value at 650 nm and presented relative to the DMSO control. Dose-response curves and IC50 values were generated and fitted with GraphPad Prism 6.0 (GraphPad software, USA) using four-parameter variable slope non-linear regression curve fit.
Cells were incubated with IFN-γ, Trp and the compounds for 48 h prior to detection of Kyn levels.

[4] = target: T3, apo-IDO1 (Homo sapiens, UniProt P14902); assay: Pulse-chase ubiquitination assay of apo-IDO1 by CRL2^KLHDC3; type: biochemical; conditions: apo-IDO1 incubated with compounds (30 µM) for 90 min at 37°C; Fig. 3j
T3 construct: For the ubiquitination assays, IDO1 (residues 5-C) was cloned into a pRSF Duet based vector; His-TEV (N); made in house; host or cells: IDO1: host not restated ('purified as described above', which points to E. coli); KLHDC3-EloB/C: Hi5 insect cells
T3 sequence (P14902 5-403 limits assumed): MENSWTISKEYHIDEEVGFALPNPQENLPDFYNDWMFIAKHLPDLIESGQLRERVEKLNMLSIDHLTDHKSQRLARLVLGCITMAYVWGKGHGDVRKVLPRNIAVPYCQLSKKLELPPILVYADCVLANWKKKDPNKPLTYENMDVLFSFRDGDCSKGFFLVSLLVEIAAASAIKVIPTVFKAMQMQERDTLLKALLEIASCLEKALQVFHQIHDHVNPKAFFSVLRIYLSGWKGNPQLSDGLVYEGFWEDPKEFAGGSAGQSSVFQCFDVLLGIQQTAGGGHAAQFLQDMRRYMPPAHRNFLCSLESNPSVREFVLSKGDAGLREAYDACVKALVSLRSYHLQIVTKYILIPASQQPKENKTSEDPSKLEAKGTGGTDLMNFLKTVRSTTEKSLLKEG

[5] = BxPC-3 cells incubated with IFN-γ, Trp and the compounds for 48 h, read-out: Kyn assay IC50 ± SD

Row | Compound | inhibition at 59 µM [1] | Dmax at 0.1 µM [2] | Dmax [%] (n) ([2]; BxPC3 cells) | IC50 [3, 5] | activity in the cell-based kynurenine assay [3] | IC50 [1] | IDO1 ubiquitination by CRL2^KLHDC3 [4] | DC50 ± SD [nM] ([2]; half-maximal degradation concentration, BxPC3 cells, immunoblotting) | IC50 ([3]; read-out: IC50 value in the Kyn assay, Kyn assay) | IC50 ([3]; read-out: Kyn assay IC50 ± SD, BxPC-3 cells incubated with IFN-γ, Trp and the compounds for 48 h)
1 | CC(C)(C(=O)O)c1ccc(S(=O)(=O)N2C[C@H]3C[C@H]4C[C@H](C4(C)C)[C@@]3(COC(=O)Nc3ccc(I)cc3)C2)c(Cl)c1 [compound 69, 2-(3-chloro-4-(((3aS,4R,6R,7aS)-3a-((((4-iodophenyl)carbamoyl)oxy)methyl)-5,5-dimethyloctahydro-2H-4,6-methanoisoindol-2-yl)sulfonyl)phenyl)-2-methylpropanoic acid] | 55 ± 2% | 20 ± 12% |  | < 200 nM |  | 270 ± 20 nM |  |  |  | 
2 | Cc1cc(C(C)(C)C(=O)O)ccc1S(=O)(=O)N1C[C@H]2C[C@H]3C[C@H](C3(C)C)[C@@]2(COC(=O)Nc2ccc(I)cc2)C1 [compound 70, 2-(4-(((3aS,4R,6R,7aS)-3a-((((4-iodophenyl)carbamoyl)oxy)methyl)-5,5-dimethyloctahydro-2H-4,6-methanoisoindol-2-yl)sulfonyl)-3-methylphenyl)-2-methylpropanoic acid] | 62 ± 1% | 18 ± 19% |  | < 200 nM |  | 110 ± 20 nM |  |  |  | 
3 | C#Cc1ccc(NC(=O)OC[C@]23CN(S(=O)(=O)c4ccc(C(C)(C)C)cc4C)C[C@H]2C[C@H]2C[C@@H]3C2(C)C)cc1 [compound 71, ((3aS,4R,6R,7aS)-2-((4-(tert-butyl)-2-methylphenyl)sulfonyl)-5,5-dimethylocta-hydro-3aH-4,6-methanoisoindol-3a-yl)methyl (4-ethynylphenyl)carbamate] | 30 ± 5% | 74 ± 13% |  |  |  |  | ubiquitinated |  |  | 
4 | C#Cc1ccc(NC(=O)OC[C@]23CN(S(=O)(=O)c4ccc(C(C)(C)C)cc4CC)C[C@H]2C[C@H]2C[C@@H]3C2(C)C)cc1 [compound 72, ((3aS,4R,6R,7aS)-2-((4-(tert-butyl)-2-ethylphenyl)sulfonyl)-5,5-dimethylocta-hydro-3aH-4,6-methanoisoindol-3a-yl)methyl(4-ethynylphenyl) carbamate] | 62 ± 5% |  | 75% |  |  |  |  | low nanomolar range | 11 nM | < 200 nM
5 | C#Cc1ccc(NC(=O)OC[C@]23CN(S(=O)(=O)c4ccc(C(C)(C)C(=O)O)cc4)C[C@H]2C[C@H]2C[C@@H]3C2(C)C)cc1 [compound 74, 2-(4-(((3aS,4R,6R,7aS)-3a-((((4-ethynylphenyl)carbamoyl)oxy)methyl)-5,5-dimethyloctahydro-2H-4,6-methanoisoindol-2-yl)sulfonyl)phenyl)-2-methylpropanoic acid] | 78 ± 3% | 54 ± 8% |  | < 200 nM | low nanomolar range | 310 ± 60 nM |  |  |  | 

The next lines start with results.

Row | inhibition at 59 µM [1] | Dmax at 0.1 µM [2] | Dmax [%] (n) ([2]; BxPC3 cells) | IC50 [3, 5] | activity in the cell-based kynurenine assay [3] | IC50 [1] | IDO1 ubiquitination by CRL2^KLHDC3 [4] | Compound | DC50 ± SD [nM] ([2]; half-maximal degradation concentration, BxPC3 cells, immunoblotting) | IC50 ([3]; read-out: IC50 value in the Kyn assay, Kyn assay) | IC50 ([3]; read-out: Kyn assay IC50 ± SD, BxPC-3 cells incubated with IFN-γ, Trp and the compounds for 48 h)
6 | 48 ± 6% | > 60% | 65 ± 10(14) % | < 200 nM | low nanomolar range |  |  | Cc1cc(C(C)(C)C)ccc1S(=O)(=O)N1C[C@H]2C[C@H]3C[C@H](C3(C)C)[C@@]2(COC(=O)Nc2ccc(I)cc2)C1 [compound 52, ((3aS,4R,6R,7aS)-2-((4-(tert-butyl)-2-methylphenyl)sulfonyl)-5,5-dimethyloctahydro-3aH-4,6-methanoisoindol-3a-yl)methyl (4-iodophenyl)carbamate] |  |  | 
7 | 37 ± 9% | 55 to 59% | 56 ± 4 (3) % | < 200 nM |  |  |  | CCc1cc(C(C)(C)C)ccc1S(=O)(=O)N1C[C@H]2C[C@H]3C[C@H](C3(C)C)[C@@]2(COC(=O)Nc2ccc(I)cc2)C1 [compound 53, ((3aS,4R,6R,7aS)-2-((4-(tert-butyl)-2-ethylphenyl)sulfonyl)-5,5-dimethyloctahydro-3aH-4,6-methanoisoindol-3a-yl)methyl (4-iodophenyl)carbamate] |  |  | 
8 | 35 ± 2% | 55 to 59% | 55 ± 4 (3) % | < 200 nM |  |  |  | CC(C)(C)c1ccc(S(=O)(=O)N2C[C@H]3C[C@H]4C[C@H](C4(C)C)[C@@]3(COC(=O)Nc3ccc(I)cc3)C2)c(C2CC2)c1 [compound 54, ((3aS,4R,6R,7aS)-2-((4-(tert-butyl)-2-cyclopropylphenyl)sulfonyl)-5,5-dimethyl-octahydro-3aH-4,6-methanoisoindol-3a-yl)methyl (4-iodophenyl)carbamate] |  |  | 
9 | 12 ± 7% | 55 to 59% | 56 ± 4 (3) % | < 200 nM |  |  |  | CC(C)(C)c1ccc(S(=O)(=O)N2C[C@H]3C[C@H]4C[C@H](C4(C)C)[C@@]3(COC(=O)Nc3ccc(I)cc3)C2)c(Br)c1 [compound 56, ((3aS,4R,6R,7aS)-2-((2-bromo-4-(tert-butyl)phenyl)sulfonyl)-5,5-dimethyloctahydro-3aH-4,6-methanoisoindol-3a-yl)methyl (4-iodophenyl)carbamate] |  |  | 
10 | 67 ± 6% | 36 to 46% | 36 ± 2 (3) % | < 200 nM |  | 1900 ± 500 nM |  | CC(C)(CC(=O)O)c1ccc(S(=O)(=O)N2C[C@H]3C[C@H]4C[C@H](C4(C)C)[C@@]3(COC(=O)Nc3ccc(I)cc3)C2)cc1 [compound 63, 3-(4-(((3aS,4R,6R,7aS)-3a-((((4-iodophenyl)carbamoyl)oxy)methyl)-5,5-dimethyloctahydro-2H-4,6-methanoisoindol-2-yl)sulfonyl)phenyl)-3-methylbutanoic acid] |  |  | 
11 | 72 ± 4% | 36 to 46% | 46 ± 21 (5) % | < 200 nM | low nanomolar range | 820 ± 140 nM |  | CC(C)(C(=O)O)c1ccc(S(=O)(=O)N2C[C@H]3C[C@H]4C[C@H](C4(C)C)[C@@]3(COC(=O)Nc3ccc(I)cc3)C2)cc1 [compound 65, 2-(4-(((3aS,4R,6R,7aS)-3a-((((4-iodophenyl)carbamoyl)oxy)methyl)-5,5-dimethyloctahydro-2H-4,6-methanoisoindol-2-yl)sulfonyl)phenyl)-2-methylpropanoic acid] |  |  | 
